{"source": "patent US20130029923A1", "about": "“Materials and Methods for Prevention and Treatment of Viral Infections” (priority 2009, published 2013)", "test_system": "influenza virus H1N1 (A/Victoria/07159200/07), oseltamivir-resistant strain", "assay_type": "cell-based, human influenza virus"}
{"smiles": "C[C@@H]1O[C@@H](OC[C@H]2O[C@@H](OCCc3ccc(O)c(O)c3)[C@H](O)[C@@H](O)[C@@H]2OC(=O)/C=C/c2ccc(O)c(O)c2)[C@H](O)[C@H](O)[C@H]1O", "note": "[Compound A1, forsythoside A]", "values": [{"measurement": "suppression of virus replication (TCID50) compared with DMSO-treated cells", "result": "~3", "unit": "fold"}]}
